Laboratory results reported in patent US8735406B2, “8-oxodihydropurine derivative” (Dainippon Sumitomo Pharma Co., Ltd., priority 2009, dated 2014).

Molecular target: T1, FAAH (Rattus norvegicus, UniProt P97612)
T1 construct: Preparation of Rat Brain Membranes Preparations (FAAH Enzyme Solution); from tissue; host or cells: rat cerebrum (brain membrane preparation)
T1 sequence (P97612 1-579): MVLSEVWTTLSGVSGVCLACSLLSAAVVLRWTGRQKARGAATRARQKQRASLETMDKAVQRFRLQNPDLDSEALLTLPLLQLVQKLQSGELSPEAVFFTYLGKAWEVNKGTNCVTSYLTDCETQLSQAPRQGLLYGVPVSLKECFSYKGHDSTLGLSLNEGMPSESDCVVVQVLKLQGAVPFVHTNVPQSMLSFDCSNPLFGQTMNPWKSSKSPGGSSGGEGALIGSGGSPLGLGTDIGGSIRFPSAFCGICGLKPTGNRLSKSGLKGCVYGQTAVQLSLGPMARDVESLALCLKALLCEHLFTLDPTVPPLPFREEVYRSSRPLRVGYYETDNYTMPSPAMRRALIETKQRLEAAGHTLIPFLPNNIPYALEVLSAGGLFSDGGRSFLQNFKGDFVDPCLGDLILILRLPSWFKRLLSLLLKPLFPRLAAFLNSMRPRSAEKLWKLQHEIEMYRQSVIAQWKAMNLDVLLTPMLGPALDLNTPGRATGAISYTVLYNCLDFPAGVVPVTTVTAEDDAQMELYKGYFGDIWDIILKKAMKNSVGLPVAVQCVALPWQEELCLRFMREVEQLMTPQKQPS
Experiment: Determination of FAAH inhibitory activity in rat (rat brain membrane preparations, [3H]-anandamide hydrolysis)
Assay type: biochemical
Settings: rat brain membrane preparations; for inhibition at 0.1 µM: 100 nM test substance, read-out: FAAH Inhibition, Inhibition Rate at 100 nM; for IC50: test substance 0.1 nM to 1 μM, read-out: FAAH Inhibition IC50
Summary of the method: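 Compounds tested from 0.1 nM to 1 μM to derive IC50 against FAAH hydrolysis in rat brain membrane preparations (100 μg/mL). A 10-min 37 °C preincubation was followed by 10 min with [3H]-anandamide (2 nM) mixed with 2 μM unlabelled anandamide. Radioactive ethanolamine was extracted into the water/methanol layer and counted.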

Row | inhibition at 0.1 µM [%] | IC50 [nM] | SMILES
1 | 93 | 47 | Cn1c(=O)n(C(=O)N2CCCC2)c2nc(CCc3ccccc3)ncc21 [Example 290, 7-Methyl-2-(2-phenylethyl)-9-(pyrrolidin-1-ylcarbonyl)-7,9-dihydro-8H-purine-8-one]
2 | 97 | 24 | Cn1c(=O)n(C(=O)N2CCCC2)c2nc(Cc3ccc(F)c(F)c3)ncc21 [Example 293, 2-(3,4-Difluorobenzyl)-7-methyl-9-(pyrrolidin-1-ylcarbonyl)-7,9-dihydro-8H-purine-8-one]
3 | 93 | 37 | Cc1cccc(Cc2ncc3c(n2)n(C(=O)N2CCCC2)c(=O)n3C)c1 [Example 294, 7-Methyl-2-(3-methylbenzyl)-9-(pyrrolidin-1-ylcarbonyl)-7,9-dihydro-8H-purine-8-one]
4 | 91 | 43 | Cn1c(=O)n(C(=O)N2CCCC2)c2nc(Cc3ccc(F)cc3)ncc21 [Example 295, 2-(4-Fluorobenzyl)-7-methyl-9-(pyrrolidin-1-ylcarbonyl)-7,9-dihydro-8H-purine-8-one]
5 | 92 | 45 | Cn1c(=O)n(C(=O)N2CCCC2)c2nc(Cc3ccc(F)cc3F)ncc21 [Example 296, 2-(2,4-Difluorobenzyl)-7-methyl-9-(pyrrolidin-1-ylcarbonyl)-7,9-dihydro-8H-purine-8-one]
6 | 89 | 47 | Cn1c(=O)n(C(=O)N2CCCC2)c2nc(Cc3cc(F)ccc3F)ncc21 [Example 297, 2-(2,5-Difluorobenzyl)-7-methyl-9-(pyrrolidin-1-ylcarbonyl)-7,9-dihydro-8H-purine-8-one]
7 | 98 | 48 | Cn1c(=O)n(C(=O)N2CCCC2)c2nc(Cc3c(F)cccc3F)ncc21 [Example 298, 2-(2,6-Difluorobenzyl)-7-methyl-9-(pyrrolidin-1-ylcarbonyl)-7,9-dihydro-8H-purine-8-one]
8 | 100 | 37 | Cn1c(=O)n(C(=O)N2CCCC2)c2nc(Cc3cc(F)cc(F)c3)ncc21 [Example 299, 2-(3,5-Difluorobenzyl)-7-methyl-9-(pyrrolidin-1-ylcarbonyl)-7,9-dihydro-8H-purine-8-one]
9 | 88 | 40 | Cn1c(=O)n(C(=O)N2CCCC2)c2nc(Cc3ccccc3F)ncc21 [Example 300, 2-(2-Fluorobenzyl)-7-methyl-9-(pyrrolidin-1-ylcarbonyl)-7,9-dihydro-8H-purine-8-one]
10 | 90 | 23 | O=C(N1CCCC1)n1c(=O)[nH]c2nc(-c3ccccc3)ncc21 [Example 301, 2-phenyl-7-(pyrrolidin-1-ylcarbonyl)-7,9-dihydro-8H-purine-8-one]
11 | 94 | 46 | O=C(N1CCCC1)n1c(=O)n(CCO)c2nc(-c3ccccc3)ncc21 [Example 302, 9-(2-hydroxyethyl)-2-phenyl-7-(pyrrolidin-1-ylcarbonyl)-7,9-dihydro-8H-purine-8-one]
12 | 101 | 7 | CCn1c(=O)n(C(=O)N2CCCC2)c2cnc(-c3ccccc3)nc21 [Example 303]
13 | 100 | 9 | CCCn1c(=O)n(C(=O)N2CCCC2)c2cnc(-c3ccccc3)nc21 [Example 304, 2-Phenyl-9-propyl-7-(pyrrolidin-1-ylcarbonyl)-7,9-dihydro-8H-purine-8-one]
14 | 99 | 12 | CC(C)n1c(=O)n(C(=O)N2CCCC2)c2cnc(-c3ccccc3)nc21 [Example 305]
15 | 99 | 15 | CCCCn1c(=O)n(C(=O)N2CCCC2)c2cnc(-c3ccccc3)nc21 [Example 306, 9-Butyl-2-phenyl-7-(pyrrolidin-1-ylcarbonyl)-7,9-dihydro-8H-purine-8-one]
16 | 96 | 41 | CC(C)Cn1c(=O)n(C(=O)N2CCCC2)c2cnc(-c3ccccc3)nc21 [Example 307]
17 | 66 | 74 | O=C(N1CCCC1)n1c(=O)n(Cc2ccccc2)c2nc(-c3ccccc3)ncc21 [Example 308]

Row | inhibition at 0.1 µM [%] | IC50 [nM] | SMILES
18 | 5 | > 100 | O=C(N1CCCC1)n1c(=O)n(CCN2CCCC2)c2nc(-c3ccccc3)ncc21 [Example 310]
19 | 88 | 53 | Cn1c(=O)n(C(=O)N2CCCC2)c2cnc(-c3cccc(O)c3)nc21 [Example 311, 2-(3-hydroxyphenyl)-9-methyl-7-(pyrrolidin-1-ylcarbonyl)-7,9-dihydro-8H-purine-8-one]
20 | 99 | 8 | Cn1c(=O)n(C(=O)N2CCCC2)c2nc(CCc3ccc(C(F)(F)F)cc3)ncc21 [Example 312, 7-methyl-9-(pyrrolidin-1-ylcarbonyl)-2-{2-[4-(trifluoromethyl)phenyl]ethyl}-7,9-dihydro-8H-purine-8-one]
21 | 103 | 11 | Cn1c(=O)n(C(=O)N2CCCC2)c2nc(CCc3cccc(C(F)(F)F)c3)ncc21 [Example 313, 7-Methyl-9-(pyrrolidin-1-ylcarbonyl)-2-{2-[3-(trifluoromethyl)phenyl]ethyl}-7,9-dihydro-8H-purine-8-one]
22 | 100 | 37 | Cn1c(=O)n(C(=O)N2CCCC2)c2nc(CCc3ccc(F)cc3)ncc21 [Example 314, 2-[2-(4-Fluorophenyl)ethyl]-7-methyl-9-(pyrrolidin-1-ylcarbonyl)-7,9-dihydro-8H-purine-8-one]
23 | 95 | 19 | Cn1c(=O)n(C(=O)N2CCCC2)c2nc(CCc3cccc(F)c3)ncc21 [Example 315, 2-[2-(3-Fluorophenyl)ethyl]-7-methyl-9-(pyrrolidin-1-ylcarbonyl)-7,9-dihydro-8H-purine-8-one]
24 | 80 | 55 | Cn1c(=O)n(C(=O)N2CCCC2)c2cnc(C3CCCCC3)nc21 [Example 316, 2-cyclohexy-9-methyl-7-(pyrrolidin-1-ylcarbonyl)-7,9-dihydro-8H-purine-8-one]
25 | 103 | < 10 | Cn1c(=O)n(C(=O)N2CCCC2)c2cnc(-c3cccc(N)c3)nc21 [Example 317, 2-(3-aminophenyl)-9-methyl-7-(pyrrolidin-1-ylcarbonyl)-7,9-dihydro-8H-purine-8-one]
26 | 45 |  | COc1cccc(-c2ncc3c(n2)n(C(=O)N(C)C)c(=O)n3C)c1 [Example 322, 2-(3-Methoxyphenyl)-N,N,7-trimethyl-8-oxo-7,8-dihydro-9H-purine-9-carboxamide]
27 | 83 | 52 | CN(C)C(=O)n1c(=O)n(C)c2cnc(-c3ccc(C(F)(F)F)cc3)nc21 [Example 326, N,N,7-Trimethyl-8-oxo-2-[4-(trifluoromethyl)phenyl]-7,8-dihydro-9H-purine-9-carboxamide]
28 | 62 | 95 | CN(C)C(=O)n1c(=O)n(C)c2cnc(-c3ccc(C(F)F)cc3)nc21 [Example 330, 2-[4-(Difluoromethyl)phenyl]-N,N,7-trimethyl-8-oxo-7,8-dihydro-9H-purine-9-carboxamide]
29 | 77 | 33 | CN(C)C(=O)n1c(=O)n(C)c2cnc(-c3cccc(OC(F)F)c3)nc21 [Example 331, 2-[3-(Difluoromethoxy)phenyl]-N,N,7-trimethyl-8-oxo-7,8-dihydro-9H-purine-9-carboxamide]
30 | 78 | 38 | CN(C)C(=O)n1c(=O)n(C)c2cnc(-c3cccc(C(F)F)c3)nc21 [Example 332, 2-[3-(Difluoromethyl)phenyl]-N,N,7-trimethyl-8-oxo-7,8-dihydro-9H-purine-9-carboxamide]
31 | 88 | 25 | CN(C)C(=O)n1c(=O)n(C)c2cnc(-c3ccc(OCC(F)(F)F)cc3)nc21 [Example 334, N,N,7-Trimethyl-8-oxo-2-[4-(2,2,2-trifluoroethoxy)phenyl]-7,8-dihydro-9H-purine-9-carboxamide]
32 | 74 | 33 | CN(C)C(=O)n1c(=O)n(C)c2cnc(-c3cccc(OCC(F)F)c3)nc21 [Example 335, 2-[3-(2,2-Difluoroethoxy)phenyl]-N,N,7-trimethyl-8-oxo-7,8-dihydro-9H-purine-9-carboxamide]
33 | 85 | 20 | CN(C)C(=O)n1c(=O)n(C)c2cnc(-c3cccc(OCC(F)(F)F)c3)nc21 [Example 336]
34 | 82 | 46 | CN(C)C(=O)n1c(=O)n(C)c2cnc(-c3ccc(OC(F)F)cc3)nc21 [Example 337, 2-[4-(Difluoromethoxy)phenyl]-N,N,7-trimethyl-8-oxo-7,8-dihydro-9H-purine-9-carboxamide]
